Reference: ChEMBL document CHEMBL1138308, “Synthesis and antibacterial activity of potent heterocyclic oxazolidinones and the identification of RBx 8700” (2007)
In brackets after ≈: the same amount, converted by molar mass.

Test system: Mycobacterium tuberculosis
Assay: Antibacterial activity against multi drug resistant Mycobacterium tuberculosis
Type: functional

CC(=O)NC[C@H]1CN(c2ccc(N3CCN(c4ccc([N+](=O)[O-])s4)CC3)c(F)c2)C(=O)O1
MIC90: 1 µg/mL (≈ 2.16 µM)
